The text below walks through data of patent US10849866B2, “Methods for inhibiting conversion of choline to trimethylamine (TMA)” (The Procter & Gamble Company, priority 2017, dated 2020).

pIC50: −log10 of the molar value.

The subject of assay [1] is conversion of choline to TMA. Briefly: Rapid preclinical method: d9-choline challenge in mice (Example 6). In kind it is in vivo, C57bl/6 female mice. The note with it: oral gavage with 2 mg d9-Choline, plasma, Time 3 hr. On the procedure:
Challenge: C57bl/6 female mice (8 wk of age ˜20 g BW) were maintained in accordance with the NIH guidelines in a 12:12 hr light:dark cycle on normal chow diet were placed in a clean cage without food ˜1 hr prior to gavage. […] Food was returned after a 2 hr fast (1 hr after gavage administration). Blood (30 μL) was collected into a heparinized capillary tube at 2, 3 and 4 hours after gavage. Blood was kept at 4° C., then spun using a centrifuge (5 min in centrifuge designed to capillary tubes) to separate plasma and hematocrit within 4 hours after collection. Plasma samples were stored at −80° C. Concentration of d9 Choline, d9TMA and d9TMAO was measured by LC-MS/MS.
Flora Normalization: Twenty four hours post-gavage mice were placed in a clean cage and fecal material from conventional mice was spread in all the cages.

Assay [2] deals with T1, recombinant P. mirabilis Cut C/D lysate (Proteus mirabilis, UniProt B4EYG1).
T1 sequence (B4EYG1 1-1142): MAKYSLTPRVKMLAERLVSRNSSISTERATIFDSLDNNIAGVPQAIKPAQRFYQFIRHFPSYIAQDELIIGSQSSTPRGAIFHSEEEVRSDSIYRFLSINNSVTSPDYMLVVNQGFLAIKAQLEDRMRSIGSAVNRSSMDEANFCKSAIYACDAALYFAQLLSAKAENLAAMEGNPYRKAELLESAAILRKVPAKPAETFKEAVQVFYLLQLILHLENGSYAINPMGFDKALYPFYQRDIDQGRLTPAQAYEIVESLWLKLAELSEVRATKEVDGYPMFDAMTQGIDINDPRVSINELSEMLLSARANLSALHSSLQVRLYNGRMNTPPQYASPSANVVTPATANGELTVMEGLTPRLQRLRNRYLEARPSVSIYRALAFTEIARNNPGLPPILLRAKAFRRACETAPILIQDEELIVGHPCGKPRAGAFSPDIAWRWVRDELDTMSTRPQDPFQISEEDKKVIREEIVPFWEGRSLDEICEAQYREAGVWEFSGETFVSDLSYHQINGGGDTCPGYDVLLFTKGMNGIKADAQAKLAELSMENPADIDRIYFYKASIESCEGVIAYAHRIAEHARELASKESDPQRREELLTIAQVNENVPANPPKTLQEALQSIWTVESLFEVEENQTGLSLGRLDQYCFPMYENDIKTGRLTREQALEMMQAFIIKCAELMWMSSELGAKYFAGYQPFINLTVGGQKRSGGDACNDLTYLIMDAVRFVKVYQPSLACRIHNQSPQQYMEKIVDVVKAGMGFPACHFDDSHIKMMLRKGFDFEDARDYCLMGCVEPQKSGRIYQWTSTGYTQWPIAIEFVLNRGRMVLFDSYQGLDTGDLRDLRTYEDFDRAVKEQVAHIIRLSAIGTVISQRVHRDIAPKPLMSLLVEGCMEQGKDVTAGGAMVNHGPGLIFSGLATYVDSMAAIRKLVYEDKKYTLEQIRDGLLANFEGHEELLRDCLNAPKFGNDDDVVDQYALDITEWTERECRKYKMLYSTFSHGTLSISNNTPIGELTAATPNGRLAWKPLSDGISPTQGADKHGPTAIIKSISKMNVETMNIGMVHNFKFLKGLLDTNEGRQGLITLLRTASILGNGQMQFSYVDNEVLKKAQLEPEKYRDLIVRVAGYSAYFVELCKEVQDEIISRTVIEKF
T1 sequence (B4EYG0 1-316 partner): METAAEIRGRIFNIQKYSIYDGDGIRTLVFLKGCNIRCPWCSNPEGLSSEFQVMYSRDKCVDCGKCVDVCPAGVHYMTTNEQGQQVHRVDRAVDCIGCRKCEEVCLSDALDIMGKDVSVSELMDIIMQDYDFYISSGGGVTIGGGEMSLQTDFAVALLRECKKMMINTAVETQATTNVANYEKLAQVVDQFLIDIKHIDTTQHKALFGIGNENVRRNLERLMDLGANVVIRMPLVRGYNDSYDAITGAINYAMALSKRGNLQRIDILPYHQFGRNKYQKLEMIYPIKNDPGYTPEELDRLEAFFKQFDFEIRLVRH
Briefly: Inhibition of conversion of choline to TMA by recombinant P. mirabilis Cut C/D lysate (Example 5). The format is biochemical. On the procedure: (§1) Briefly, efficacy was measured as IC50 (nM) by inhibition of conversion of choline to TMA metabolized by recombinant P. mirabilis Cut C/D lysate; recombinant D. alaskensis Cut C/D lysate, or whole cell wild-type P. mirabilis.

Assay [3] concerns the target T2, recombinant D. alaskensis Cut C/D lysate (Oleidesulfovibrio alaskensis, UniProt Q30W70).
T2 construct: made in house
T2 sequence (Q30W70 1-846): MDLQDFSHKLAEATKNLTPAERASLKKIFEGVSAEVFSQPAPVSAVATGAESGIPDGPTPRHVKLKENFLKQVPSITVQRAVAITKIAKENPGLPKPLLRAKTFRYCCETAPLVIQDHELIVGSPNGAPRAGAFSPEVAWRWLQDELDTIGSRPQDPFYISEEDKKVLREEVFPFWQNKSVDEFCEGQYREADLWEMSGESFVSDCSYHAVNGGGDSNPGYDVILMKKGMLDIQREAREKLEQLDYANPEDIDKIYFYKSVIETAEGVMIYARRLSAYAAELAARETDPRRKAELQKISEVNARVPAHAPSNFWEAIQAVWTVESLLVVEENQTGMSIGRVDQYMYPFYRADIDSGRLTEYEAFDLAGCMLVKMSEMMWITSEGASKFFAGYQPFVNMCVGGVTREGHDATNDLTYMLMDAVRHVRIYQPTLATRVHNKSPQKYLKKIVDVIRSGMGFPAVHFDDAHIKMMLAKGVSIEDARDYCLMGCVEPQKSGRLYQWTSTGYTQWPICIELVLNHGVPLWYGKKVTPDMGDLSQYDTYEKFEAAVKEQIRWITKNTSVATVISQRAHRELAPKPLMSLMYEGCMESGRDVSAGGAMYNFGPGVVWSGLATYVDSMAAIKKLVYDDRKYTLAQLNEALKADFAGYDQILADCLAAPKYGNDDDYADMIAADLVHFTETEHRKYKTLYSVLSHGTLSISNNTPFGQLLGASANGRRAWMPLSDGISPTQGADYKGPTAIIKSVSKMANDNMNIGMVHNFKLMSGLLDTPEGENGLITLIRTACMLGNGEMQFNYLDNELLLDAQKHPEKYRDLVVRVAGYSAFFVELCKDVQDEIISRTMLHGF
Briefly: Inhibition of conversion of choline to TMA by recombinant D. alaskensis Cut C/D lysate (Example 5). In kind it is biochemical. On the procedure: as §1

Assay [4] deals with Proteus mirabilis 29906 (Pm) lysate. Kind of assay: Inhibition of formation of TMA from choline in Proteus mirabilis lysate (Example 2). In kind it is biochemical. The note with it: Pm lysate 1.5 mg/mL protein, 50 μM d9-choline chloride, 37° C., two hours; read-out: TMA Inhibition (IC50, mol/L).
Description: Choline chloride (CC) (1M stock) was added to reach a final concentration of 2.5 mM choline chloride. The mixture was mixed using a vortex mixer for approximately 15 seconds and incubated at 37° C. for 22 hours. After incubation, 150 μL of CC-treated Pm lysate was dispensed into a deep-well plate (polypropylene, 2 mL volume, Corning Axygen catalogue # P-DW-20-C). […] The plates were agitated on a plate shaker for 1 minute. d9-choline chloride (1.5 μL of 5 mM) was added to all wells to reach a final d9-choline chloride concentration of 50 μM.
The plates were again agitated on a plate shaker for 1 minute and incubated at 37° C. for two hours. After incubation, 1.5 μL of formic acid was added to each well (final concentration=1% formic acid). The plates were agitated on a plate shaker for 1 minute and placed on ice. Cell lysate samples were spiked with stable isotope labeled internal standard (22.5 μL of 6 μg/mL of 13C3-trimethylamine (13C3-TMA) was added to each sample), then d9-trimethylamine (d9-TMA), trimethylamine (TMA) and 13C3-TMA were isolated from the lysate after protein precipitation as described below. […] The supernatant was removed and analyzed as described below. […] The concentrations of TMA and d9-TMA in the cell lysate were determined by interpolation from the quadratic (1/×2) regression curve.
Assay [5] deals with whole cell wild-type P. mirabilis. Kind of assay: Inhibition of conversion of choline to TMA by whole cell wild-type P. mirabilis (Example 5). The format is cell-based. The settings on record: Proteus mirabilis. On the procedure: as §1

With `C[N+](C)(CI)CCF` [ID 2, 2-fluoro-N-(iodomethyl)-N,N-dimethylethan-1-aminium chloride], the “Calculated EC50 (mg/kg) compared to Vehicle Control” value in assay [1] is given as 15.40 mg/kg. Moreover, the results for the pIC50 in assay [2], in assay [3] and in assay [4] were 6.62, 6.82 and 6.75, respectively. In addition, the EC50 – broadly, the midpoint of the concentration-response curve – in assay [5] was found to be 67000 nM.
Taken in the same sequence, the figures for `C[N+](C)(CCl)CCF` [ID 1, N-(chloromethyl)-2-fluoro-N,N-dimethylethan-1-aminium chloride] were 3.10 mg/kg, 6.16, 6.12, 6.57 and 8700 nM.
